Reference: PMC9504695, “Insight into the Formation of Cocrystal and Salt of Tenoxicam from the Isomer and Conformation” (Pharmaceutics, 2022)
Like-named read-outs stand apart in the source and are kept apart here.

Columns and labels:
[1] = pKa of TNX and cocrystal coformers (values from SciFinder); conditions: between CCF and TNX (pKa of TNX 4.50)
[2] = cited from earlier work
[3] = clinical dosage forms; cited from earlier work
[4] = low solubility and high permeability; cited from earlier work
[5] = Dissolution measurements (basket method, 37 °C, HPLC); type: physicochemical; conditions: pH 1.2 and 6.8, 37 °C
Description: Dissolution measurements were investigated by the basket method by using an RC12AD dissolution instrument (Tianjin Tianda Tianfa Technology Co., Ltd., Tianjin, China). According to a previous study, it is necessary that all of the particle sizes of TNX, cocrystals, and salt are at the same level when the same operation is performed on these samples. To do so, the powder samples of TNX, two cocrystals, and one salt were milled and sieved through 100-mesh sieves to minimize the size influence on the results. The temperature and rotation speed were set to 37 °C and 160 r·min^−1. The dissolution mediums were water (pH 7.0), phosphate buffer (pH 6.8), acetate buffer (pH 4.5), and hydrochloric buffer (pH 1.2). Accurately weighed samples (containing 60 mg of TNX) were each added to 900 mL of dissolution mediums. The sampling points were at 5, 10, 15, 20, 30, 45, 60, 90, 120, 180, 240, 360, 480, 600, and 720 min. The concentrations of TNX were quantified on an Agilent 1200 Series HPLC system (Agilent Technologies, Santa Clara, USA) with a Sil-Green C18 HPLC column (4.6 mm × 250 mm, 5μm) and a UV detector at a wavelength of 257 nm. The mobile phase was methanol–0.04% formic acid aqueous solution (61:39). The flow rate and column temperature were set to 1 mL·min^−1 and 25 °C.

| Compound | ΔpKa Value [1] | pKa Value ([2]; pKa of the CCF, ref SciFinder) | other results |
| --- | --- | --- | --- |
| O=C(O)c1cc([N+](=O)[O-])cc([N+](=O)[O-])c1 [3,5-Dinitrobenzoic acid (DNB), 3,5-Dinitrobenzoic acid] | 1.73 | 2.77 |  |
| O=C(O)CO [Glycolic acid (GLA), Glycolic acid] | 0.76 | 3.74 |  |
| O=C(O)CCC(=O)C(=O)O [α-Ketoglutaric acid (KLA), α-Ketoglutaric acid] | 2.12 |  |  |
| O=C(O)C(=O)O [Oxalic acid (OLA), Oxalic acid] |  | 1.38 |  |
| O=C1NS(=O)(=O)c2ccccc21 [Saccharin (SCR), Saccharin] |  | 1.60 |  |
| O=C(O)CCC(=O)O [Succinic acid (SNA), Succinic acid] | 0.26 |  |  |
| O=C(O)c1c(O)cccc1O [2,6-Dihydroxybenzoic acid (DHB), 2,6-Dihydroxybenzoic acid] | 3.20 | 1.30 |  |
| Oc1ccccc1O [Pyrocatechol (PRC), Pyrocatechol] | 5.00 | 9.50 |  |
| O=C(O)/C=C\C(=O)O [Maleic acid (MLA), Maleic acid] | 2.11 | 2.39 |  |
| Oc1cccc(O)c1O [Pyrogallol (PRG), Pyrogallol] | 4.78 | 9.28 |  |
| CN1C(C(=O)Nc2ccccn2)=C(O)c2sccc2S1(=O)=O [TNX, Tenoxicam] |  |  | half-life period [3]: 70~90 h; pKa ([2]; TNX, source not given): 4.50; BCS class [4]: class II |
| O=C(O)c1ccc(O)cc1 [4-Hydroxybenzoic acid (HBA), 4-Hydroxybenzoic acid] | 0.07 |  |  |
| Oc1cccc(O)c1 [Resorcinol (RSC), Resorcinol] | 4.95 | 9.45 |  |
| Nc1ccc(C(=O)O)c(O)c1 [p-Aminosalicylic acid (PAS), p-Aminosalicylic acid] | 0.92 |  | pKa Value [2]: 3.58 |
| CN1C(C(=O)Nc2ccccn2)=C(O)c2sccc2S1(=O)=O.Nc1ccc(C(=O)O)c(O)c1 [TNX-PAS] |  |  | solubility in dissolution measurements, comparison [5]: slightly higher than that of TNX |
